Measured values: US6387906B1, “2,4,4-trisubstituted-1,3-dioxolane antifungals” (priority 1997, dated 2002)
Structures can show the parent of a compound that is named as a salt.

How the values were obtained:
Trichophyton rubrum = test: Measurement of antifungal activity in vitro (lowest active dose) vs. Trichophyton rubrum; type: cell-based; conditions: lowest concentration inhibiting growth below 35% of control growth; CYG broth, 30° C. for 5-7 days, turbidimetry
Description: (§1) Test compounds were dissolved at a concentration of 10^−2 M in dimethyl sulfoxide (DMSO) and diluted into CYG broth (Odds, F. C. Antimicrobial Agents and Chemotherapy 1992; 36: 1727-1737) to give a final concentration of 25 μM and, in most tests, 5 μM. For some compounds the tests were done at 100, 10, 1.0 and 0.1 μM. Cultures were inoculated with Candida.kefyr to an initial concentration of 10^4/ml and with Trichophyton rubrum to an equivalent concentration determined by turbidimetry. Cultures were incubated in the wells of microdilution plates at 37° C. for 48 h (C. kefyr) and at 30° C. for 5-7 days (T. rubrum). Growth in wells containing test compounds was estimated turbidimetrically as a percentage of growth in compound-free controls and the lowest concentration of compound that inhibited the growth of an isolate below 35% of control growth was recorded as the lowest active dose (LAD).

Candida kefyr = test: Measurement of antifungal activity in vitro (lowest active dose) vs. Candida kefyr; type: cell-based; conditions: lowest concentration inhibiting growth below 35% of control growth; CYG broth, 37° C. for 48 h, turbidimetry
Description: as §1

Row | SMILES | melting point | LAD (μM) vs. T. rubrum (Trichophyton rubrum) | LAD (μM) vs. C. keyr (Candida kefyr)
1 | CC(C)N(C)C(=O)Nc1ccc(N2CCN(c3ccc(OCC4OCC(Cn5cncn5)(c5ccc(F)cc5F)O4)cc3)CC2)cc1 (stereo not drawn) (as salt: HCl) [Compound 54, (B-cis)-N-[4-[4-[4-[[4-(2,4-difluorophenyl)-4-(1H-1,2,4-triazol-1-yl-methyl)-1,3-dioxolan-2-yl]methoxy]phenyl]-1-piperazinyl]phenyl]-N′-methyl-N′-(1-methylethyl)urea] | 186 °C | – | –
2 | CC(C)N1CCN(c2ccc(N3CCN(c4ccc(OC[C@H]5OC[C@](Cn6cncn6)(c6ccc(F)cc6F)O5)cc4)CC3)cc2)C1=O.Cl (stereo in doubt) [Compound 52, (2S-cis)-1-[4-[4-[4-[[4-(2,4-difluorophenyl)-4-(1H-1,2,4-triazol-1-ylmethyl)-1,3-dioxolan-2-yl]methoxy]phenyl]-1-piperazinyl]phenyl]-3-(1-methylethyl)-2-imidazolidinone hydrochloride (1:1)] | – | ≦0.1 μM | ≦0.1 μM
3 | CCCn1c(=O)n(CC)c(=O)n(-c2ccc(N3CCN(c4ccc(OC[C@@H]5OC[C@@](Cn6cncn6)(c6ccc(F)cc6F)O5)cc4)CC3)cc2)c1=O [Compound 46] | – | 100 µM | 1 µM
4 | CCN1C(=O)N(c2ccc(N3CCN(c4ccc(OC[C@H]5OC[C@](Cn6cncn6)(c6ccc(F)cc6F)O5)cc4)CC3)cc2)C(=O)C(C)(C)C1=O [Compound 49] | – | 1 µM | 1 µM
5 | CC(C)N1CCN(c2ccc(N3CCN(c4ccc(OC[C@@H]5OC[C@@](Cn6cncn6)(c6ccc(F)cc6F)O5)cc4)CC3)cc2)C1=O [Compound 50] | – | 1 µM | 1 µM
6 | CC(C)N1CCN(c2ccc(N3CCN(c4ccc(OC[C@H]5OC[C@](Cn6cncn6)(c6ccc(F)cc6F)O5)cc4)CC3)cc2)C1=O [Compound 51, (2S-cis)-1-[4-[4-[4-[[4-(2,4-difluorophenyl)-4-(1H-1,2,4-triazol-1-ylmethyl)-1,3-dioxolan-2-yl]methoxy]phenyl]-1-piperazinyl]phenyl]-3-(1-methylethyl)-2-imidazolidinone] | 177.8 °C | ≦0.1 μM | ≦0.1 μM
7 | CC(C)NC(=O)Nc1ccc(N2CCN(c3ccc(OCC4OCC(Cn5cncn5)(c5ccc(F)cc5F)O4)cc3)CC2)cc1 (stereo not drawn) [Compound 53, (2S-cis)-N-[4-[4-[4-[[4-(2,4-difluorophenyl)-4-(1H-1,2,4-triazol-1-ylmetyl)-1,3-dioxolan-2-yl]-methoxy]phenyl]-1-piperazinyl]phenyl]-N′-(1-methylethyl)urea] | 196 °C | – | –
